In US10927398B2, “Compositions for CYP450 phenotyping using saliva samples” (Concordia University, Inc., priority 2015, dated 2021):
Where “and” joins values, the source holds several entries; their conditions need not be identical. Equal entries are not always repeated. Where two headings read alike, the source gives them in different places.

Assays:
[1] = system: CYP2C19
[2] = Table of Exemplary Drugs, CYP2C19; cited from earlier work
[3] = without an enteric coating or base protection; cited from earlier work
[4] = Table of Exemplary Drugs, CYP2C19; cited from earlier work; remark: listed apart in the source
[5] = system: CYP2C19; settings: saliva, repeat doses of Formulation #4, per subject and tablet #
[6] = system: plasma protein; settings: Table of Exemplary Drugs, CYP2C19; cited from earlier work
[7] = saliva, healthy adults, omeprazole 20 mg

COc1ccc2[nH]c([S+]([O-])Cc3ncc(C)c(OC)c3C)nc2c1 (stereo not drawn) [Omeprazole]
concentrations in saliva ([1]; over the counter formulations, some individuals): found in low concentrations in saliva of some individuals
CYP2C19 metabolic phenotype: Extensive [1, 7]: 49.4%
CYP2C19 metabolic phenotype: Intermediate [1, 7]: 31.3%
CYP2C19 metabolic phenotype: Poor [1, 7]: 7.2%
CYP2C19 metabolic phenotype: Rapid [1, 7]: 9.6%
CYP2C19 metabolic phenotype: Ultra-rapid [1, 7]: 2.4%
HALF-LIFE [2]: 30 to 60 min
stability in acidic gastric fluids [3]: rapidly degrades
ORAL BIOAVAILABILITY [4]: 30-40%
Log10 Omeprazole/5-Hydroxy Omeprazole Metabolic Ratio ([5]; time point 0.5 h): 0.9 and 2.3 (2×) and 1.4 and 2.4 and 3.5 and 3.1
Log10 Omeprazole/5-Hydroxy Omeprazole Metabolic Ratio ([5]; time point 1 h): 1.2 (2×) and 0.7 (2×) and 1.5 and 1.1 and 1.3 and 1.9 and 1.4
Log10 Omeprazole/5-Hydroxy Omeprazole Metabolic Ratio ([5]; time point 2 h): 0.6 (2×) and 0.5 and 1.3 (2×) and 0.9 and 0.8 and 1.1 and 1.0 and 1.2 and 0.4 and 2.0
Log10 Omeprazole/5-Hydroxy Omeprazole Metabolic Ratio ([5]; time point 3 h): 0.4 (2×) and 0.7 and 0.9 (2×) and 0.8 and 0.6 (2×) and 1.3 (2×) and 0.05 and 0.2 and 1.6 and 1.0
Log10 Omeprazole/5-Hydroxy Omeprazole Metabolic Ratio ([5]; time point 4 h): 0.4 (2×) and 1.2 and 1.0 and 0.6 (3×) and 0.7 and 0.9 and 0.03 and 1.3
PLASMA PROTEIN BINDING [6]: 95-96% ^
